Experiment [1] concerns the target T1, von Hippel-Lindau disease tumor suppressor/Lysine-specific demethylase 4A (Homo sapiens, UniProt O75164+P40337). Description: PROTAC activity at VHL/KDM4A in human KYSE-150 cells assessed as induction of KDM4A degradation at 1 uM incubated for 12 hrs by Western blot analysis relative to control. In kind it is cell-based. The following applies: KYSE-150 cell line. (Immunoblotting shows a protein as a band on a membrane.)

The target in experiment [2] is T1, von Hippel-Lindau disease tumor suppressor/Lysine-specific demethylase 4A. Description: PROTAC activity at VHL/KDM4A in human KYSE-150 cells assessed as induction of KDM4A degradation at 500 nM measured for 8 to 36 hrs by Western blot analysis. In kind it is cell-based. The following applies: KYSE-150 cell line, time 8-36 hrs.
Experiment [3] addresses von Hippel-Lindau disease tumor suppressor/Lysine-specific demethylase 4B (Homo sapiens, UniProt P40337+O94953). In words: PROTAC activity at VHL/KDM4B in human KYSE-150 cells assessed as induction of KDM4B degradation upto 1000 nM measured after 24 hrs by Western blot analysis relative to control. Type of experiment: cell-based. The following applies: KYSE-150 cell line.

The target of experiment [4] is von Hippel-Lindau disease tumor suppressor/Lysine-specific demethylase 4D (Homo sapiens, UniProt Q6B0I6+P40337). In words: PROTAC activity at VHL/KDM4D in human KYSE-150 cells assessed as induction of KDM4D degradation measured after 24 hrs by Western blot analysis. Type of experiment: cell-based. The settings on record: kyse-150 cell line.
Chain of von Hippel-Lindau disease tumor suppressor/Lysine-specific demethylase 4D (Q6B0I6 whole entry): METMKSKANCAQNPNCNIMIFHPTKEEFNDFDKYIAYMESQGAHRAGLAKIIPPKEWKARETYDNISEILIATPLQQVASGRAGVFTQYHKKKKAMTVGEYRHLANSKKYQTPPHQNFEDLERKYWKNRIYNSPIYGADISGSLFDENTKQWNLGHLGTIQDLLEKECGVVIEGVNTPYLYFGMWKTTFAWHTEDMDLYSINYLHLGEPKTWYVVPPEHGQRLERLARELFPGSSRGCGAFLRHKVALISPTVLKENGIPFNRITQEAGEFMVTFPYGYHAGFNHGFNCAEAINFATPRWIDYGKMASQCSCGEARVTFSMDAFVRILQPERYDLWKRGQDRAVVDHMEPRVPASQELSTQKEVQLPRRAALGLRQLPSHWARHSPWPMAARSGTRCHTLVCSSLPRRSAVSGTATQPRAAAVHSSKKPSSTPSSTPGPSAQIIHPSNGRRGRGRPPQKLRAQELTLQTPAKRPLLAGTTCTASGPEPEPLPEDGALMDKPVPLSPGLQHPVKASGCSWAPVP
Chain of von Hippel-Lindau disease tumor suppressor/Lysine-specific demethylase 4D (P40337 whole entry): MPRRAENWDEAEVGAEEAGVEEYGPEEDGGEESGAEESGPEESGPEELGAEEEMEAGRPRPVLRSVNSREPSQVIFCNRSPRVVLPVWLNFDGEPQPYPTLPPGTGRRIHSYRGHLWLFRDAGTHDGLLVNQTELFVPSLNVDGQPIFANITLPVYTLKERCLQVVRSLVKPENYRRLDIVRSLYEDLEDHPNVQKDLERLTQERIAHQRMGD
The target in experiment [5] is T1, von Hippel-Lindau disease tumor suppressor/Lysine-specific demethylase 4A. In words: PROTAC activity at VHL/KDM4A in human KYSE-150 cells assessed as induction of KDM4A degradation at 50 nM incubated for 24 hrs in presence of bortezomib by Western blot analysis. Type of experiment: cell-based. The settings on record: KYSE-150 cell line.
For experiment [6] the target is unchanged. Description: PROTAC activity at VHL/KDM4A in human KYSE-150 cells assessed as induction of KDM4A degradation at 50 nM incubated for 24 hrs in presence of Ac-VHL-Me by Western blot analysis. In kind it is cell-based. The following applies: KYSE-150 cell line.
The target is the same in experiment [7]. Description: PROTAC activity at VHL/KDM4A in human KYSE-150 cells assessed as increase in KDM4A ubiquitination at 50 nM incubated for 24 hrs by Western blot analysis. The settings on record: KYSE-150 cell line. In kind it is cell-based.
Experiment [8] can be described thus: Induction of cell cycle arrest in human KYSE-150 cells assessed as accumulation of cells at G0/G1 phase at 12.3 nM incubated for 24 hrs by flow cytometry (reference value: 65.08 %). In kind it is functional.
Experiment [9] can be described thus: Induction of cell cycle arrest in human KYSE-150 cells assessed as accumulation of cells at G2/M phase at 12.3 nM incubated for 24 hrs by flow cytometry (reference value: 21.64 %). Type of experiment: functional. (In flow cytometry, cells or beads pass a laser one at a time.)
Experiment [10] in a line: Induction of cell cycle arrest in human KYSE-150 cells assessed as accumulation of cells at G0/G1 phase at 37 nM incubated for 24 hrs by flow cytometry (reference value: 65.08 %). In kind it is functional.
Experiment [11] can be described thus: Induction of cell cycle arrest in human KYSE-150 cells assessed as accumulation of cells at S pahse at 111.1 nM incubated for 24 hrs by flow cytometry (reference value: 13.15 %). In kind it is functional.
Experiment [12] is described as follows: Induction of cell cycle arrest in human KYSE-150 cells assessed as accumulation of cells at G0/G1 phase at 1000 nM incubated for 24 hrs by flow cytometry (reference value: 65.08 %). Type of experiment: functional.
The nature of experiment [13]: Induction of cell cycle arrest in human KYSE-150 cells assessed as accumulation of cells at G2/M phase at 1000 nM incubated for 24 hrs by flow cytometry (reference value: 21.64 %). In kind it is functional.
Experiment [14] is described as follows: Induction of apoptosis in human KYSE-150 cells assessed as viable cells at 12.3 nM incubated for 72 hrs by Annexin V-PE/7-AAD staining based flow cytometry (reference value: 84.47 %). In kind it is functional. The settings on record: read-out: Activity.
A short description of experiment [15]: Induction of apoptosis in human KYSE-150 cells assessed as early apoptotic cells at 12.3 nM incubated for 72 hrs by Annexin V-PE/7-AAD staining based flow cytometry (reference value: 5.27 %). In kind it is functional.
The nature of experiment [16]: Induction of apoptosis in human KYSE-150 cells assessed as necrotic cells at 12.3 nM incubated for 72 hrs by Annexin V-PE/7-AAD staining based flow cytometry (reference value: 4.28 %). In kind it is functional.
Experiment [17] can be described thus: Induction of apoptosis in human KYSE-150 cells assessed as late apoptotic cells at 37 nM incubated for 72 hrs by Annexin V-PE/7-AAD staining based flow cytometry (reference value: 5.98 %). Type of experiment: functional.
The nature of experiment [18]: Induction of apoptosis in human KYSE-150 cells assessed as viable cells at 111.1 nM incubated for 72 hrs by Annexin V-PE/7-AAD staining based flow cytometry (reference value: 84.47 %). The following applies: read-out: Activity. Type of experiment: functional.
Experiment [19] is described as follows: Induction of apoptosis in human KYSE-150 cells assessed as late apoptotic cells at 111.1 nM incubated for 72 hrs by Annexin V-PE/7-AAD staining based flow cytometry (reference value: 5.98 %). Type of experiment: functional.
A short description of experiment [20]: Induction of apoptosis in human KYSE-150 cells assessed as necrotic cells at 111.1 nM incubated for 72 hrs by Annexin V-PE/7-AAD staining based flow cytometry (reference value: 4.28 %). In kind it is functional.
Experiment [21] is described as follows: Induction of apoptosis in human KYSE-150 cells assessed as viable cells at 333.3 nM incubated for 72 hrs by Annexin V-PE/7-AAD staining based flow cytometry (reference value: 84.47 %). The settings on record: read-out: Activity. In kind it is functional.
The nature of experiment [22]: Induction of apoptosis in human KYSE-150 cells assessed as viable cells at 1000 nM incubated for 72 hrs by Annexin V-PE/7-AAD staining based flow cytometry (reference value: 84.47 %). Type of experiment: functional. The following applies: read-out: Activity.
Experiment [23] is described as follows: Induction of apoptosis in human KYSE-150 cells assessed as early apoptotic cells at 1000 nM incubated for 72 hrs by Annexin V-PE/7-AAD staining based flow cytometry (reference value: 5.27 %). Type of experiment: functional.
The nature of experiment [24]: Induction of apoptosis in human KYSE-150 cells assessed as necrotic cells at 1000 nM incubated for 72 hrs by Annexin V-PE/7-AAD staining based flow cytometry (reference value: 4.28 %). In kind it is functional.

Here are results for one molecule from ChEMBL document CHEMBL6115000, “Discovery of a first-in-class PROTAC degrader of histone lysine demethylase KDM4” (Eur J Med Chem, 2025).

The source made the active and inactive calls. The rule behind the calls is not given here. Where only a bound is given, the exact number is not on record here.

T1 sequence (O75164 2-1064 limits assumed): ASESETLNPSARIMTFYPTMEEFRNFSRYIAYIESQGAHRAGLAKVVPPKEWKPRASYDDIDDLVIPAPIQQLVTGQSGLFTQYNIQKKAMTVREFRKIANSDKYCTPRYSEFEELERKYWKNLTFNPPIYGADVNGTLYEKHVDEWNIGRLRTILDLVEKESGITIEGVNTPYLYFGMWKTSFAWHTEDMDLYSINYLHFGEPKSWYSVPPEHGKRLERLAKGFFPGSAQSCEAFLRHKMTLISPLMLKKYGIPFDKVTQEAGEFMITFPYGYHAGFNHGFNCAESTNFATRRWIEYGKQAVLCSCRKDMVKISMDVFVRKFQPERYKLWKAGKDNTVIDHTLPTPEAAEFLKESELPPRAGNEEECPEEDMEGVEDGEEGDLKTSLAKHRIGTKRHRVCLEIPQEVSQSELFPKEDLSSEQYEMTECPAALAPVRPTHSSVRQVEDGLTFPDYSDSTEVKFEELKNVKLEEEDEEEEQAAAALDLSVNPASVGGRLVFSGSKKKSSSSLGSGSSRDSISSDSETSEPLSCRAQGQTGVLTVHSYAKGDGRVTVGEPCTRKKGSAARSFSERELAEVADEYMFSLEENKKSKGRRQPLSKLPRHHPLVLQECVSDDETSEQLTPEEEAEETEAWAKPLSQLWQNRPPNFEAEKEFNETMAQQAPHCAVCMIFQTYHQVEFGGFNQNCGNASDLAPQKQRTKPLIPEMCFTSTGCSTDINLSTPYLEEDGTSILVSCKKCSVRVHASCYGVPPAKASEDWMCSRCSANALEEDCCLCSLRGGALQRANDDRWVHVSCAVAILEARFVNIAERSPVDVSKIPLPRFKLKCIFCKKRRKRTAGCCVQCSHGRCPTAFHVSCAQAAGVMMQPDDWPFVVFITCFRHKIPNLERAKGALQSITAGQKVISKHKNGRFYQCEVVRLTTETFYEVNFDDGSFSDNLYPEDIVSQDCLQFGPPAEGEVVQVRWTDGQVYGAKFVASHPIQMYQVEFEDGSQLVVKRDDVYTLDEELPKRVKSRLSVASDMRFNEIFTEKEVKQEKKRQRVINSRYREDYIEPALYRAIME
T1 sequence (P40337 whole entry partner): as the sequence (P40337 whole entry) above
Chain of von Hippel-Lindau disease tumor suppressor/Lysine-specific demethylase 4B (O94953 whole entry, looked up): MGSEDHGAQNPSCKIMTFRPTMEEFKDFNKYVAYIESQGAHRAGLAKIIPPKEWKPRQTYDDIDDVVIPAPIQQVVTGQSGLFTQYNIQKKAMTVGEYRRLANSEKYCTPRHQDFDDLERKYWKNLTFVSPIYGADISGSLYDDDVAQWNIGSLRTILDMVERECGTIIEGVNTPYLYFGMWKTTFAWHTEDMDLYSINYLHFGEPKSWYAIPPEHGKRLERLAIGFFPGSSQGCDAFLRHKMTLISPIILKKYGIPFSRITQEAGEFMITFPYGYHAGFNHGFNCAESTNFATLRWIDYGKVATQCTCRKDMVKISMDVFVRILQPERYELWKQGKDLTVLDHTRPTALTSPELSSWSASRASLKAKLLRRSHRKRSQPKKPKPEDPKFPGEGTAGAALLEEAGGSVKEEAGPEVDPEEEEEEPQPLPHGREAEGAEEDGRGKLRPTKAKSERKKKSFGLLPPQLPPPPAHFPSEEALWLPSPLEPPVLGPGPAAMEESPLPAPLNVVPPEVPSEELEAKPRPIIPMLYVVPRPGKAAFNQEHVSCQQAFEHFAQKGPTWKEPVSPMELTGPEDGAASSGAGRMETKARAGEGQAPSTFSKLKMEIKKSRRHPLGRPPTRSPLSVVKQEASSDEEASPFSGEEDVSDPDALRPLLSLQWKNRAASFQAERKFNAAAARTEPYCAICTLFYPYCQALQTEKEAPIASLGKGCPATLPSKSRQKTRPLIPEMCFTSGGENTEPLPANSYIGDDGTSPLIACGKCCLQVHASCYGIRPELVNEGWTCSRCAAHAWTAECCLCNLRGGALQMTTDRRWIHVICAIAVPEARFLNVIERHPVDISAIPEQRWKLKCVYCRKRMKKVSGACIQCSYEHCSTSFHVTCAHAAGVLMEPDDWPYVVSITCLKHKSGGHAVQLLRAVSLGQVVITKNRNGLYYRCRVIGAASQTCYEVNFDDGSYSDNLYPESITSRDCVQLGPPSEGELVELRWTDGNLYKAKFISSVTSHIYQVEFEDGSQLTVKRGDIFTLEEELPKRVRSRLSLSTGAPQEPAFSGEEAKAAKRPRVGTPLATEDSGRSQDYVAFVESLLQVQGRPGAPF
Chain of von Hippel-Lindau disease tumor suppressor/Lysine-specific demethylase 4B (P40337 whole entry, looked up): as the sequence (P40337 whole entry) above

Broadly, the Emax is the maximal effect, on the per cent scale that the assay sets. Broadly, the DC50 is the midpoint of the concentration-degradation curve. Regarding `Cc1ncsc1-c1ccc([C@H](C)NC(=O)[C@@H]2C[C@@H](O)CN2C(=O)[C@@H](NC(=O)CCCCCCCCCOc2ccc(N(C)c3ccc4c(c3)OCC[C@H]4CNc3cnccc3C(=O)O)cc2)C(C)(C)C)cc1`, the Activity was 57.2% in experiment [1]; 69.11% in [8]; 16.31% in experiment [9]; 71.68% in [10]; 14.35% in experiment [11]; 74.74% in [12]. In addition, the Activity in experiment [13] was found to be 12.05%; in experiment [15], 10.63%; in [16], 6.02%; in [17], 43.51%; in experiment [19] it was 54.12%; in experiment [20] it was 5.52%. In addition, the Activity in experiment [23] was found to be 29.18%; in experiment [24], 5.01%. In addition, the result in experiment [2] and in [7] was Active. Moreover, the Emax in experiment [3] was 73.1%. In addition, the DC50 in experiment [4] was more than 1000 nM. Further, the result in experiment [5] and in experiment [6] was inactive. Besides, the viability at 0.0123 µM in experiment [14] was determined as 64.4%. In experiment [18], the viability at 0.1111 µM came out at 18.2%. For the same molecule, the viability at 0.3333 µM in experiment [21] stood at 19.5%. In addition, the viability at 1 µM in experiment [22] is 17.9%.
